pIC50: −log10 of the molar value.
Biological target: T1, BACE1 (Homo sapiens, UniProt P56817)
T1 construct: endogenous in cells; host or cells: HEK-293 (stably transfected with wild type APP695 only)
Assay: Cellular BACE1 Inhibition Assay (in vitro cellular Amyloidβ 1-40 production assay, HTRF immunoassay)
Type: cell-based
Experimental: The BACE inhibition properties of the compounds of the invention may be determined by the following in vitro cellular Amyloidβ 1-40 production assay.
Inhibition of Amyloidβ1-40 production was determined by incubating cells with compound for 48 hours and quantifying the level of Amyloidβ 1-40 using an HTRF immunoassay.
Materials and Methods: HEK-293 cells stably transfected with a DNA construct containing the coding sequence for the wild type APP695 sequence were grown in DMEM supplemented with 10% fetal bovine serum, penicillin/streptomycin and 150 μg/mL G418. Cells were plated in 96-well plates at 35,000 cells/well and allowed to attach for 8-12 hours. Media was changed to DMEM supplemented with 10% fetal bovine serum, penicillin/streptomycin 15 minutes prior to compound addition. Diluted compounds were then added at a final concentration of 0.5% DMSO. After 48 hours, 4 μL of media from each well was added to a corresponding well of a 384 well plate (Perkin Elmer Cat#6008280) containing the HTRF reagents. HTRF reagents were obtained from the CisBio Amyloidβ 1-40 peptide assay kit (Cat#62B40PEC) and were prepared as follows anti-peptide β (1-40)-Cryptate and anti-peptide β (1-40)-XL655 were stored in 2 plate aliquots at −80° C. Diluent and Reconstitution buffer were stored at 4° C. Aliquots of the two antibodies were diluted 1:100 with Reconstitution buffer, and this mixture was diluted 1:2 with Diluent. 12 μL of the reagent mixture was added to the required wells of the 384 well assay plate. The assay plate was incubated at 4° C. for 17 hours and then analyzed for fluorescence at 665 and 620 nm.

T1 sequence (P56817 46-501): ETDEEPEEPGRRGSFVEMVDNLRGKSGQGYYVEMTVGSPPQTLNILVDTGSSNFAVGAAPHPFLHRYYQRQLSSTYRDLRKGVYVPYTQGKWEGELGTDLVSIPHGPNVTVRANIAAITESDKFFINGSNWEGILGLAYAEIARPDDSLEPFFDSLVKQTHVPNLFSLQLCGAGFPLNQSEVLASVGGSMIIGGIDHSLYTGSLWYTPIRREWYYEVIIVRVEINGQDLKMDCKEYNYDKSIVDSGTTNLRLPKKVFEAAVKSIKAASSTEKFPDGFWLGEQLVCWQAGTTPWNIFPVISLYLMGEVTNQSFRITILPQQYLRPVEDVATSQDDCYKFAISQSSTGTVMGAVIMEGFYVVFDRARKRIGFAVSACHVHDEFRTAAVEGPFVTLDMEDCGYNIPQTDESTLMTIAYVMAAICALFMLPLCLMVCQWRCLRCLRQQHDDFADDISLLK

| SMILES | pIC50 |
| --- | --- |
| CN1C(=O)C2(N=C1N)c1cc(-c3cccc(Cl)c3)ccc1CCC21CCOCC1 (centres unmarked) [Example 35, 2-amino-7″-(3-chlorophenyl)-1-methyl-2′,3′,5′,6′-tetrahydro-3″,4″-dihydro-2″H-dispiro[midazol-4,1″-naphthalen-2″,4′-pyran]-5(1H)-one] | 6.72 |
| CN1C(=O)[C@]2(C[C@@](C)(CO)Cc3ccc(-c4cc(F)cc(Cl)c4)cc32)N=C1N [Example 144, (1′R,3′S)-2-amino-7′-(3-chloro-5-fluorophenyl)-3′-(hydroxymethyl)-1,3′-dimethyl-3′,4′-dihydro-2′H-spiro[imidazole-4,1′-naphthalen]-5(1H)-one] | 8.48 |
| CC1CCc2ccc(-c3cccc(OC(F)F)c3)cc2C12N=C(N)N(C)C2=O (centres unmarked) [Example 57, 2-amino-7′-(3-(difluoromethoxy)phenyl)-1,2′-dimethy1-3′,4-dihydro-2′H-spiro[imidazole-4,1′-naphthalen]-5(1H)-one] | 6.44 |
| CC1CCc2ccc(-c3cc(F)cc(Cl)c3)cc2C12N=C(N)N(C)C2=O (centres unmarked) [Example 56, 2-amino-7′-(3-chloro-5-fluorophenyl)-1,2′-dimethyl-3′,4′-dihydro-2′H-spiro[imidazole-4,1′-naphthalen]-5(1H)-one] | 6.44 |
| CN1C(=O)[C@@]2(N=C1N)c1cc(-c3cccc(Cl)c3)ccc1CC[C@@H]2CC1CCN(CC(F)F)CC1 [Example 62, (1′S,2′R)-2-amino-7′-(3-chlorophenyl)-2′-((1-(2,2-difluoroethyl)piperidin-4-yl)methyl)-1-methyl-3′,4′-dihydro-2′H-spiro[imidazole-4,1′-naphthalen]-5(1H)-one] | 6.51 |
| COc1ccnc(-c2ccc3c(c2)C2(CC(C)(C)C3)N=C(N)N(C)C2=O)c1 (centres unmarked) [Example 137, 2-amino-7′-(4-methoxypyridin-2-yl)-1,3′,3′-trimethyl-3′,4′-dihydro-2′H-spiro[imidazole-4,1′-naphthalen]-5(1H)-one] | 8.21 |
| CN1C(=O)C2(CCCc3ccc(-c4cncnc4)cc32)N=C1N (centres unmarked) [Example 25, 2-Amino-1-methyl-7′-(pyrimidin-5-yl)-3′,4′-dihydro-2′H-spiro[imidazole-4,1′-naphthalen]-5(1H)-one] | 6.99 |
| CN1C(=O)C2(N=C1N)c1cc(-c3cncc(Cl)c3)ccc1CC(C)(C)C2F (centres unmarked) [Example 158, 2-amino-7′-(5-chloropyridin-3-yl)-2′-fluoro-1,3′,3′-trimethyl-3′,4′-dihydro-2′H-spiro[imidazole-4,1′-naphthalen]-5(1H)-one] | 8.17 |
